Results as given in patent publication US9120752B2, “Pyridine compounds as sodium channel blockers” (Purdue Pharma, L.P., priority 2010, dated 2015).

Test system: FCA-induced inflammation of the rat hind paw
Experiment: Freund's complete adjuvant (FCA) model of inflammatory pain, paw withdrawal threshold
Assay type: in vivo
Conditions: 10 mg/kg, oral (PO), 3 h post administration
Method: Each experiment uses rats weighing between 200-260 g at the start of the experiment. The rats are group-housed and have free access to food and water at all times, except prior to oral administration of a test compound when food is removed for 16 hours before dosing. A control group acts as a comparison to rats treated with a compound of Formulae I-XIII. The control group is administered the carrier as used for the test compound. The volume of carrier administered to the control group is the same as the volume of carrier and test compound administered to the test group.
To assess the actions of the compounds of Formulae I-XIII on the treatment of inflammatory pain the Freund's complete adjuvant (“FCA”) model of inflammatory pain was used. […] 24 hour post injection, the animal was assessed for response to noxious mechanical stimuli by determining the paw withdrawal threshold (PWT), or to noxious thermal stimuli by determining the paw withdrawal latency (PWL), as described below. […] Responses to noxious mechanical or thermal stimuli were determined 1, 3, and 5 hours post administration (admin). […]
Sensitivity to noxious mechanical stimuli can be measured in animals using the paw pressure test to assess mechanical hyperalgesia. […] PWT is determined once for each rat at each time point. PWT can be measured only in the injured paw, or in both the injured and non-injured paw. […]

Compound	increase in PWT (paw withdrawal threshold)
NC(=O)[C@H](CO)NC(=O)c1cccc(-c2ccc(Oc3ccc(F)cc3)cc2)n1 [Compound 47, 6-[4-(4-fluoro-phenoxy)-phenyl]-pyridine-2-carboxylic acid ((S)-1-carbamoyl-2-hydroxy-ethyl)-amide]	statistically significant increase

Same assay, conditions: 30 mg/kg, oral (PO), 1, 3 and 5 h post administration

Compound	increase in PWT (paw withdrawal threshold)
NC(=O)[C@H](CO)NC(=O)c1cccc(-c2ccc(Oc3ccc(F)cc3)cc2)n1 [Compound 47, 6-[4-(4-fluoro-phenoxy)-phenyl]-pyridine-2-carboxylic acid ((S)-1-carbamoyl-2-hydroxy-ethyl)-amide]	statistically significant increase

Target: human Nav1.7 (Homo sapiens (Human), UniProt Q15858)
Sequence (Q15858 other isoform, or with tags, fused parts or gaps): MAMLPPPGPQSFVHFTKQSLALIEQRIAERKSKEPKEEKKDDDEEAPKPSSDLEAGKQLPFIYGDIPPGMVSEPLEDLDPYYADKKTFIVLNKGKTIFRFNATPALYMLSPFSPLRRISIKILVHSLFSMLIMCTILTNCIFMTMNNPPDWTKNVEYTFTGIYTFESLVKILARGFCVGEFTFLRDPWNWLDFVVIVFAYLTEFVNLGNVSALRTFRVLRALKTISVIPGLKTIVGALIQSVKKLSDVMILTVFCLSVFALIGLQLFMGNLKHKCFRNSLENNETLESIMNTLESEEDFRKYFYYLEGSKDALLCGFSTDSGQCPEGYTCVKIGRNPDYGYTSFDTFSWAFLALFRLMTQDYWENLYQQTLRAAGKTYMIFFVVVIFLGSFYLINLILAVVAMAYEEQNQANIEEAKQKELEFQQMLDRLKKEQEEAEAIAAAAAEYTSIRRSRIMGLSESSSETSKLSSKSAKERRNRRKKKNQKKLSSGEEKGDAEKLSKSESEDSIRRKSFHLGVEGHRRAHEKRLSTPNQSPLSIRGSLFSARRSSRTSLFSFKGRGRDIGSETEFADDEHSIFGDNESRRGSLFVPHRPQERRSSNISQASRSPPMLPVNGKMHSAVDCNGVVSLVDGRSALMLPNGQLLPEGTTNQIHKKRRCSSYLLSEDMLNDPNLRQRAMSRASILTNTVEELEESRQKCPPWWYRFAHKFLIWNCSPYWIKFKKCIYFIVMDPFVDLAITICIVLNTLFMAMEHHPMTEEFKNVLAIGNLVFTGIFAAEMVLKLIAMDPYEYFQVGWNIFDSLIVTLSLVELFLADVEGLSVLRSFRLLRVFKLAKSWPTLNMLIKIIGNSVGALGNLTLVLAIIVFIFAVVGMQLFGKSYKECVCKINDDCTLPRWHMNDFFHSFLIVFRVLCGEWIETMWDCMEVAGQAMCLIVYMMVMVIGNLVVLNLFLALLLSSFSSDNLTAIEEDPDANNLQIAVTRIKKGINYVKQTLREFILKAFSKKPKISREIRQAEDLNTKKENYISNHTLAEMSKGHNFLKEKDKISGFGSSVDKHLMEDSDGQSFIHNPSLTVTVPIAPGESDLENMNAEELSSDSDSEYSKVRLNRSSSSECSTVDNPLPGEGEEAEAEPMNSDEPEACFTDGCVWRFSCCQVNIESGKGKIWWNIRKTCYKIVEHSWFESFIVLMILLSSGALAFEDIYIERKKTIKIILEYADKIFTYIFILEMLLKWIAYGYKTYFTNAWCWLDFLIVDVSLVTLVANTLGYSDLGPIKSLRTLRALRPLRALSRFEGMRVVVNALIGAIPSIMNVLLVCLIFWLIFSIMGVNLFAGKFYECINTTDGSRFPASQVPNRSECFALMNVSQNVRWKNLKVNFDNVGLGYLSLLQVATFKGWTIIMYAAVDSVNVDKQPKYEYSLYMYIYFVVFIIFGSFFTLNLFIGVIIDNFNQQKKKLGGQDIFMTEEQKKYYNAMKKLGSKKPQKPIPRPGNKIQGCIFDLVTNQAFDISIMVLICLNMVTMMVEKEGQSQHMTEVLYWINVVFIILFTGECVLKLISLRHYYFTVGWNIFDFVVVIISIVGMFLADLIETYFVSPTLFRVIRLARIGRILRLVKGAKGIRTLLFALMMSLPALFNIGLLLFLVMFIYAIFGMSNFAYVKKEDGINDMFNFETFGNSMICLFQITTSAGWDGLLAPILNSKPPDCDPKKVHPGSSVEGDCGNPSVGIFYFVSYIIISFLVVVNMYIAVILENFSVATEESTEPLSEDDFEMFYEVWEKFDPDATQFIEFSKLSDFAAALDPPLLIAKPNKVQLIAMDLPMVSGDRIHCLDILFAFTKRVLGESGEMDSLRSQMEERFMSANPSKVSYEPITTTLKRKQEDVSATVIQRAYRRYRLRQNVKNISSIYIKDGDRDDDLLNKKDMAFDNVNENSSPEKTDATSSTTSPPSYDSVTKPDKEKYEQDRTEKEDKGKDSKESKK
Experiment: FLIPR or FLIPR TETRA sodium dye assay with KCl and test article pre-incubation
Assay type: cell-based
Conditions: sodium dye assay with KCl; recombinant Nav1.7/HEK293 cells; read-out: Nav1.7 IC50 (μM) ± SEM

Compound	IC50 [µM]
NC(=O)[C@H](CO)NC(=O)c1cccc(-c2ccc(Oc3ccc(F)cc3)cc2)n1 [Compound 47, 6-[4-(4-fluoro-phenoxy)-phenyl]-pyridine-2-carboxylic acid ((S)-1-carbamoyl-2-hydroxy-ethyl)-amide]	1.53 ± 0.33
NC(=O)[C@H](Cc1cccnc1)NC(=O)c1cccc(-c2ccc(Oc3ccc(F)cc3)cc2)n1 [Compound 45, (S)—N-(1-amino-1-oxo-3-(pyridin-3-yl)propan-2-yl)-6-(4-(4-fluorophenoxy)phenyl)picolinamide]	0.21 ± 0.04
N#Cc1cccc(S(=O)(=O)N2CCN(C(=O)c3cccc(Oc4ccc(F)cc4)n3)CC2)c1 [Compound 55, 3-((4-(6-(4-fluorophenoxy)picolinoyl)piperazin-1-yl)sulfonyl)benzonitrile]	5.94 ± 0.73
N#Cc1cc(S(=O)(=O)N2CCN(C(=O)c3cccc(-c4ccc(Oc5ccc(F)cc5)cc4)n3)CC2)ccc1F [Compound 59]	0.34 ± 0.13
CN1CCOc2cc(S(=O)(=O)N3CCN(C(=O)c4cccc(-c5ccc(Oc6ccc(F)cc6)cc5)n4)CC3)ccc21 [Compound 60, (6-(4-(4-fluorophenoxy)phenyl)pyridin-2-yl)(4-((4-methyl-3,4-dihydro-2H-benzo[b][1,4]oxazin-7-yl)sulfonyl)piperazin-1-yl)methanone]	0.78 ± 0.1
CC(C)C[C@H](NC(=O)c1cc([C@H](O)CO)cc(-c2ccc(Oc3ccc(F)cc3)cc2)n1)C(N)=O [Compound 63, N—((S)-1-amino-4-methyl-1-oxopentan-2-yl)-4-((S)-1,2-dihydroxyethyl)-6-(4-(4-fluorophenoxy)phenyl)picolinamide]	0.814 ± 0.231
NC(=O)[C@@H]1CCCN1C(=O)c1cccc(-c2ccc(Oc3ccc(F)cc3)cc2)n1 [Compound 42, (S)-1-{6-[4-(4-fluoro-phenoxy)-phenyl]-pyridine-2-carbonyl}-pyrrolidine-2-carboxylic acid amide]	2.12 ± 0.35
O=C(O)c1ccc(S(=O)(=O)N2CCN(C(=O)c3cccc(-c4ccc(Oc5ccc(F)cc5)cc4)n3)CC2)cc1 [Compound 19, 4-((4-(6-(4-(4-fluorophenoxy)phenyl)picolinoyl)piperazin-1-yl)sulfonyl)benzoic acid]	4.81 ± 0.18
O=C(c1cccc(-c2ccc(Oc3ccc(F)cc3)cc2)n1)N1CCN(S(=O)(=O)c2cccc(OC(F)(F)F)c2)CC1 [Compound 16]	0.32 ± 0.09
NC(=O)[C@H](Cc1c[nH]cn1)NC(=O)c1cccc(-c2ccc(Oc3ccc(F)cc3)cc2)n1 [Compound 49, 6-[4-(4-fluoro-phenoxy)-phenyl]-pyridine-2-carboxylic acid [(S)-1-carbamoyl-2-(1H-imidazol-4-yl)-ethyl]-amide]	0.33 ± 0.02
Cc1noc(C)c1S(=O)(=O)N1CCN(C(=O)c2cccc(-c3ccc(Oc4ccc(F)cc4)cc3)n2)CC1 [Compound 14, (4-((3,5-dimethylisoxazol-4-yl)sulfonyl)piperazin-1-yl)(6-(4-(4-fluorophenoxy)phenyl)pyridin-2-yl)methanone]	0.22 ± 0.04
O=C(O)c1cccc(S(=O)(=O)N2CCN(C(=O)c3cccc(-c4ccc(Oc5ccc(F)cc5)cc4)n3)CC2)c1 [Compound 18, 3-((4-(6-(4-(4-fluorophenoxy)phenyl)picolinoyl)piperazin-1-yl)sulfonyl)benzoic acid]	3.48 ± 0.72
CN(C)S(=O)(=O)N1CCN(C(=O)c2cccc(-c3ccc(Oc4ccc(F)cc4)cc3)n2)CC1 [Compound 11, 4-(6-(4-(4-fluorophenoxy)phenyl)picolinoyl)-N,N-dimethyl-piperazine-1-sulfonamide]	1.01 ± 0.09
